#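 Briefly, cells in 96-well plates were exposed to five compound concentrations for 48 h, and endpoints were estimated by linear interpolation. GI50 marks 50% less growth. TGI marks complete inhibition of growth.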
# How the values were obtained:
# Experiment in all cases: NCI anticancer screen, dose series, 48 h
# SF-539 CNS = system: SF-539 CNS
# SN12C renal = system: SN12C renal
# MDA-MB-231 breast = system: MDA-MB-231 breast
# RXF 393 renal = system: RXF 393 renal
# NCI/ADR-RES ovarian = system: NCI/ADR-RES ovarian
# BT-549 breast = system: BT-549 breast
# SK-OV-3 ovarian = system: SK-OV-3 ovarian
# SK-MEL-5 melanoma = system: SK-MEL-5 melanoma
# A498 renal = system: A498 renal
# MDA-MB-435 = system: MDA-MB-435
# OVCAR-5 ovarian = system: OVCAR-5 ovarian
# HCC-2998 colon = system: HCC-2998 colon
# NCI-H226 lung = system: NCI-H226 lung
# ACHN renal = system: ACHN renal
# 786-0 renal = system: 786-0 renal
# LOX IMVI melanoma = system: LOX IMVI melanoma
# SF-268 CNS = system: SF-268 CNS
# HOP-92 NSCLC = system: HOP-92 NSCLC
# NCI-H460 lung = system: NCI-H460 lung
# SW-620 colon = system: SW-620 colon
# MALME-3M melanoma = system: MALME-3M melanoma
# HT29 colon = system: HT29 colon
# UO-31 renal = system: UO-31 renal
# DU-145 prostate = system: DU-145 prostate
# SNB-75 CNS = system: SNB-75 CNS
# KM12 colon = system: KM12 colon
# SR leukemia = system: SR leukemia
# M14 melanoma = system: M14 melanoma
# OVCAR-8 ovarian = system: OVCAR-8 ovarian
# PC-3 prostate = system: PC-3 prostate
# CCRF-CEM leukemia = system: CCRF-CEM leukemia
# RPMI-8226 leukemia = system: RPMI-8226 leukemia
# IGROV1 ovarian = system: IGROV1 ovarian
# HOP-62 NSCLC = system: HOP-62 NSCLC
# CAKI-1 renal = system: CAKI-1 renal
# HL-60(TB) leukemia = system: HL-60(TB) leukemia
# HCT-15 colon = system: HCT-15 colon
# MOLT-4 leukemia = system: MOLT-4 leukemia
# NCI-H522 lung = system: NCI-H522 lung
# EKVX NSCLC = system: EKVX NSCLC
# MCF7 breast = system: MCF7 breast
# HS 578T breast = system: HS 578T breast
# UACC-62 melanoma = system: UACC-62 melanoma
# SK-MEL-2 melanoma = system: SK-MEL-2 melanoma
# UACC-257 melanoma = system: UACC-257 melanoma
# A549 NSCLC = system: A549 NSCLC
# OVCAR-4 ovarian = system: OVCAR-4 ovarian
# TK-10 renal = system: TK-10 renal
# SK-MEL-28 melanoma = system: SK-MEL-28 melanoma
# U251 CNS = system: U251 CNS
# SF-295 CNS = system: SF-295 CNS
# K-562 leukemia = system: K-562 leukemia
# COLO 205 colon = system: COLO 205 colon
smiles,measurement,setting,value
Cc1[nH]c(C(=O)Nc2ccccc2OCc2cccc(C(=O)NC3CCCNC3)c2)c(Cl)c1Cl (centres undefined),GI50,SF-539 CNS,1690 nM
same,TGI,SF-539 CNS,3.15 µM
same,GI50,SN12C renal,1900 nM
same,TGI,SN12C renal,3.72 µM
same,GI50,MDA-MB-231 breast,1750 nM
same,TGI,MDA-MB-231 breast,3380 nM
same,GI50,RXF 393 renal,1480 nM
same,TGI,RXF 393 renal,3100 nM
same,GI50,NCI/ADR-RES ovarian,2960 nM
same,TGI,NCI/ADR-RES ovarian,9.88 µM
same,GI50,BT-549 breast,2630 nM
same,TGI,BT-549 breast,9.75 µM
same,GI50,SK-OV-3 ovarian,8.91 µM
same,TGI,SK-OV-3 ovarian,26.9 µM
same,GI50,SK-MEL-5 melanoma,1710 nM
same,TGI,SK-MEL-5 melanoma,3.11 µM
same,GI50,A498 renal,1800 nM
same,TGI,A498 renal,5.59 µM
same,GI50,MDA-MB-435,1740 nM
same,TGI,MDA-MB-435,3240 nM
same,GI50,OVCAR-5 ovarian,1640 nM
same,TGI,OVCAR-5 ovarian,3.06 µM
same,GI50,HCC-2998 colon,2010 nM
same,TGI,HCC-2998 colon,3730 nM
same,GI50,NCI-H226 lung,2010 nM
same,TGI,NCI-H226 lung,5.31 µM
same,GI50,ACHN renal,1660 nM
same,TGI,ACHN renal,3110 nM
Cc1ccc(-c2cc3nc(C(Cl)Cl)nc(-c4ccco4)n3n2)cc1,GI50,786-0 renal,2030 nM
same,TGI,786-0 renal,> 100000 nM
same,GI50,LOX IMVI melanoma,> 100 µM
same,TGI,LOX IMVI melanoma,> 100 µM
same,GI50,SF-268 CNS,1650 nM
same,TGI,SF-268 CNS,> 100000 nM
same,GI50,HOP-92 NSCLC,339 nM
same,TGI,HOP-92 NSCLC,2690 nM
same,GI50,NCI-H460 lung,352 nM
same,TGI,NCI-H460 lung,1470 nM
same,GI50,SW-620 colon,583 nM
same,TGI,SW-620 colon,> 100 µM
same,GI50,MALME-3M melanoma,> 100000 nM
same,TGI,MALME-3M melanoma,> 100000 nM
same,GI50,SF-539 CNS,927 nM
same,TGI,SF-539 CNS,3.33 µM
same,GI50,HT29 colon,328 nM
same,TGI,HT29 colon,1230 nM
same,GI50,SN12C renal,> 100000 nM
same,TGI,SN12C renal,> 100 µM
same,GI50,UO-31 renal,523 nM
same,TGI,UO-31 renal,3990 nM
same,GI50,DU-145 prostate,404 nM
same,TGI,DU-145 prostate,2350 nM
same,GI50,MDA-MB-231 breast,289 nM
same,TGI,MDA-MB-231 breast,1850 nM
same,GI50,SNB-75 CNS,186 nM
same,TGI,SNB-75 CNS,1710 nM
same,GI50,KM12 colon,1810 nM
same,TGI,KM12 colon,5.52 µM
same,GI50,SR leukemia,> 100000 nM
same,TGI,SR leukemia,> 100 µM
same,GI50,BT-549 breast,> 100000 nM
same,TGI,BT-549 breast,> 100 µM
same,GI50,M14 melanoma,> 100000 nM
same,TGI,M14 melanoma,> 100000 nM
same,GI50,SK-OV-3 ovarian,3.09 µM
same,TGI,SK-OV-3 ovarian,> 100 µM
same,GI50,SK-MEL-5 melanoma,> 100000 nM
same,TGI,SK-MEL-5 melanoma,> 100 µM
same,GI50,OVCAR-8 ovarian,604 nM
same,TGI,OVCAR-8 ovarian,> 100000 nM
same,GI50,PC-3 prostate,506 nM
same,TGI,PC-3 prostate,4.49 µM
same,GI50,CCRF-CEM leukemia,> 100000 nM
same,TGI,CCRF-CEM leukemia,> 100 µM
same,GI50,RPMI-8226 leukemia,2380 nM
same,TGI,RPMI-8226 leukemia,> 100 µM
same,GI50,IGROV1 ovarian,2650 nM
same,TGI,IGROV1 ovarian,> 100 µM
same,GI50,HOP-62 NSCLC,298 nM
same,TGI,HOP-62 NSCLC,3.82 µM
same,GI50,CAKI-1 renal,832 nM
same,TGI,CAKI-1 renal,4.74 µM
same,GI50,HCC-2998 colon,321 nM
same,TGI,HCC-2998 colon,1400 nM
same,GI50,HL-60(TB) leukemia,348 nM
same,TGI,HL-60(TB) leukemia,3250 nM
same,GI50,HCT-15 colon,845 nM
same,TGI,HCT-15 colon,> 100 µM
same,GI50,NCI-H226 lung,> 100000 nM
same,TGI,NCI-H226 lung,> 100 µM
same,GI50,MOLT-4 leukemia,> 100000 nM
same,TGI,MOLT-4 leukemia,> 100 µM
same,GI50,NCI-H522 lung,> 100000 nM
same,TGI,NCI-H522 lung,> 100000 nM
same,GI50,ACHN renal,273 nM
same,TGI,ACHN renal,1360 nM
Cc1ccc2c(c1)Oc1nc(N)c(C#N)c(N)c1C2Sc1ccc(F)cc1 (centres undefined),GI50,EKVX NSCLC,1220 nM
same,TGI,EKVX NSCLC,2470 nM
same,GI50,786-0 renal,1190 nM
same,TGI,786-0 renal,2450 nM
same,GI50,SF-268 CNS,1230 nM
same,TGI,SF-268 CNS,2520 nM
same,GI50,HOP-92 NSCLC,1140 nM
same,TGI,HOP-92 NSCLC,2440 nM
same,GI50,MALME-3M melanoma,992 nM
same,TGI,MALME-3M melanoma,2340 nM
same,GI50,SF-539 CNS,1340 nM
same,TGI,SF-539 CNS,2.63 µM
same,GI50,HT29 colon,1820 nM
same,TGI,HT29 colon,3430 nM
same,GI50,MCF7 breast,361 nM
same,TGI,MCF7 breast,1990 nM
same,GI50,HS 578T breast,1020 nM
same,TGI,HS 578T breast,4.22 µM
same,GI50,UO-31 renal,215 nM
same,TGI,UO-31 renal,1720 nM
same,GI50,DU-145 prostate,1480 nM
same,TGI,DU-145 prostate,2820 nM
same,GI50,UACC-62 melanoma,1500 nM
same,TGI,UACC-62 melanoma,2870 nM
same,GI50,RXF 393 renal,611 nM
same,TGI,RXF 393 renal,1690 nM
same,GI50,SNB-75 CNS,956 nM
same,TGI,SNB-75 CNS,2330 nM
same,GI50,KM12 colon,1480 nM
same,TGI,KM12 colon,2.83 µM
same,GI50,SR leukemia,301 nM
same,TGI,SR leukemia,> 100 µM
same,GI50,BT-549 breast,415 nM
same,TGI,BT-549 breast,1.71 µM
same,GI50,M14 melanoma,1440 nM
same,TGI,M14 melanoma,2850 nM
same,GI50,SK-OV-3 ovarian,1.8 µM
same,TGI,SK-OV-3 ovarian,3.29 µM
same,GI50,SK-MEL-2 melanoma,1300 nM
same,TGI,SK-MEL-2 melanoma,2600 nM
same,GI50,SK-MEL-5 melanoma,1570 nM
same,TGI,SK-MEL-5 melanoma,2.95 µM
same,GI50,OVCAR-8 ovarian,1300 nM
same,TGI,OVCAR-8 ovarian,2610 nM
same,GI50,UACC-257 melanoma,1290 nM
same,TGI,UACC-257 melanoma,2580 nM
same,GI50,A549 NSCLC,1550 nM
same,TGI,A549 NSCLC,3.01 µM
same,GI50,OVCAR-4 ovarian,1450 nM
same,TGI,OVCAR-4 ovarian,2780 nM
same,GI50,A498 renal,1450 nM
same,TGI,A498 renal,2.78 µM
same,GI50,TK-10 renal,2230 nM
same,TGI,TK-10 renal,3.7 µM
same,GI50,MDA-MB-435,1260 nM
same,TGI,MDA-MB-435,2670 nM
same,GI50,CCRF-CEM leukemia,201 nM
same,TGI,CCRF-CEM leukemia,> 100 µM
same,GI50,RPMI-8226 leukemia,448 nM
same,TGI,RPMI-8226 leukemia,> 100 µM
same,GI50,HOP-62 NSCLC,1620 nM
same,TGI,HOP-62 NSCLC,3.08 µM
same,GI50,SK-MEL-28 melanoma,1170 nM
same,TGI,SK-MEL-28 melanoma,2400 nM
same,GI50,U251 CNS,1170 nM
same,TGI,U251 CNS,2490 nM
same,GI50,HCC-2998 colon,1510 nM
same,TGI,HCC-2998 colon,2920 nM
same,GI50,HL-60(TB) leukemia,242 nM
same,TGI,HL-60(TB) leukemia,647 nM
same,GI50,SF-295 CNS,1680 nM
same,TGI,SF-295 CNS,3.07 µM
same,GI50,K-562 leukemia,309 nM
same,TGI,K-562 leukemia,> 100 µM
same,GI50,NCI-H226 lung,1530 nM
same,TGI,NCI-H226 lung,4.16 µM
same,GI50,MOLT-4 leukemia,306 nM
same,GI50,NCI-H522 lung,785 nM
same,TGI,NCI-H522 lung,2100 nM
same,GI50,COLO 205 colon,1330 nM
same,TGI,COLO 205 colon,2780 nM
same,GI50,ACHN renal,1340 nM
same,TGI,ACHN renal,2630 nM

# Source: PubChem BioAssay (NCI)
